For assay [1], the target named is T1, BRAF V600E (Homo sapiens, UniProt P15056+Q96SW2, V600E).
T1 construct: knock-in of the HiBiT tag to the endogenous BRAF V600E locus; host or cells: A375.10 (A375 clonal line, CRISPR HiBiT knock-in at the endogenous BRAF V600E locus)
Description: BRAF V600E HiBiT Degradation Assay. Type of assay: cell-based. The gist of the method:
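Endogenous HiBiT knock-in on BRAF V600E in A375 cells (clone A375.10); 11-point half-log series, top 10 μM, 2, 6 or 24 h at 37° C. Lytic HiBiT luminescence, background-subtracted, normalized to DMSO; 4-parameter fit gives DC50, Emax (residual protein) and IP (inflection point).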
For orientation: The HiBiT peptide binds its large partner to form an active luciferase.

Assay [2] relates to A375-NRAS^Q61K cells. Description: CTGlo Cell Viability Assay, A375-NRAS^Q61K (A375.11) cells, 96 hours. The note with it: A375.11 (A375-NRAS^Q61K) cells; for Emax / CTGlo A375.11 96 hours Emax: lowest % viability achieved. Format: cell-based, human. The gist of the method: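 Viability as CellTiter-Glo ATP luminescence after 96 h compound exposure at 37 °C; A375.11 (BRAF V600E/NRAS Q61K) cells at 250/well, top final concentration 10 μM in half-log steps. Signal was background-corrected and set relative to DMSO controls. A 4-parameter logistic fit gave GI50 (50% crossing) and Emax.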

Setting [3] is: A375.10 cells, BRAF V600E, 2 hours, inflection point, read-out: HiBiT-Degradation A375.10 BRAF 2 hours IP.
[4] abbreviates: A375.10 cells, BRAF V600E, 2 hours, read-out: HiBiT-Degradation A375.10 BRAF 2 hours DC50.
Setting [5] is: A375.10 cells, BRAF V600E, 2 hours, residual protein remaining.
Setting [6] is: A375.10 cells, HiBiT, BRAF V600E, 24 hours, read-out: HiBiT-Degradation A375.10 BRAF 24 hours DC50.
Setting [7] is: A375.10 cells, HiBiT, BRAF V600E, 24 hours, read-out: HiBiT-Degradation A375.10 BRAF 24 hours Emax.
Setting [8] is: A375.10 cells, HiBiT, BRAF V600E, 24 hours, read-out: HiBiT-Degradation A375.10 BRAF 24 hours IP.

The text below walks through data of patent US20260297060A1, “COMPOUNDS FOR THE DEGRADATION OF MUTANT BRAF” (C4 THERAPEUTICS, INC., priority 2023, published 2026).

Read-outs that look alike come from different tables or passages of the source. Bounds are passed on as bounds.

T1 sequence (P15056 whole entry V600E): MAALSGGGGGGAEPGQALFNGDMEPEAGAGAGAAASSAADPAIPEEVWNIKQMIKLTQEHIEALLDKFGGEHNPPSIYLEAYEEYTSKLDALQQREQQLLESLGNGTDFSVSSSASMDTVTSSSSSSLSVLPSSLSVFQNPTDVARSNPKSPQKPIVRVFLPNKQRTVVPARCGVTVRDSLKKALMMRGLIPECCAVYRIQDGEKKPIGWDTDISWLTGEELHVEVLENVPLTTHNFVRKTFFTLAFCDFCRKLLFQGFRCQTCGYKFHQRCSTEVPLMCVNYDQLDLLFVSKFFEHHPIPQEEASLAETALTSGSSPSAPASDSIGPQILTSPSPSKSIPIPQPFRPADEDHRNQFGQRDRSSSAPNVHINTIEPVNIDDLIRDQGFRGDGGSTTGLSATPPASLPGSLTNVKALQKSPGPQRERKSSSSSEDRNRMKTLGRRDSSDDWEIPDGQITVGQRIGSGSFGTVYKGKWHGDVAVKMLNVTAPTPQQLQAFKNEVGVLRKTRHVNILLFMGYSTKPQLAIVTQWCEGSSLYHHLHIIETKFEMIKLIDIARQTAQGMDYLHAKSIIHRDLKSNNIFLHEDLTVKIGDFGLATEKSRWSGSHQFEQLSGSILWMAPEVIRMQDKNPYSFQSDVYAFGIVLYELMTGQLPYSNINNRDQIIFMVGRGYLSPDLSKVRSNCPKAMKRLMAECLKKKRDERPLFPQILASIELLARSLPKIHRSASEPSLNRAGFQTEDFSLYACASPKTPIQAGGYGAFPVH
T1 sequence (Q96SW2 whole entry): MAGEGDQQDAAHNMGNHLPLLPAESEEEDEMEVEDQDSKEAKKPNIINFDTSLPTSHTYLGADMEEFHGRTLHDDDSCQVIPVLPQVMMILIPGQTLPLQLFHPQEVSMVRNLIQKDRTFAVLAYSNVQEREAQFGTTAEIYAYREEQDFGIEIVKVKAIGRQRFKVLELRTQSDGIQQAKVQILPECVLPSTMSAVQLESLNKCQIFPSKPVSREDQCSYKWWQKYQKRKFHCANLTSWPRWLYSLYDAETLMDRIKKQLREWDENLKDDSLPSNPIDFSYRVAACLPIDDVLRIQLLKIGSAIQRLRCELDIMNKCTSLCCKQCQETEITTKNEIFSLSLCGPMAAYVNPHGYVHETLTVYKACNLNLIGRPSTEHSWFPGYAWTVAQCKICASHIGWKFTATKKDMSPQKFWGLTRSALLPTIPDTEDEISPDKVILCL
T1 sequence (Q16531 whole entry partner): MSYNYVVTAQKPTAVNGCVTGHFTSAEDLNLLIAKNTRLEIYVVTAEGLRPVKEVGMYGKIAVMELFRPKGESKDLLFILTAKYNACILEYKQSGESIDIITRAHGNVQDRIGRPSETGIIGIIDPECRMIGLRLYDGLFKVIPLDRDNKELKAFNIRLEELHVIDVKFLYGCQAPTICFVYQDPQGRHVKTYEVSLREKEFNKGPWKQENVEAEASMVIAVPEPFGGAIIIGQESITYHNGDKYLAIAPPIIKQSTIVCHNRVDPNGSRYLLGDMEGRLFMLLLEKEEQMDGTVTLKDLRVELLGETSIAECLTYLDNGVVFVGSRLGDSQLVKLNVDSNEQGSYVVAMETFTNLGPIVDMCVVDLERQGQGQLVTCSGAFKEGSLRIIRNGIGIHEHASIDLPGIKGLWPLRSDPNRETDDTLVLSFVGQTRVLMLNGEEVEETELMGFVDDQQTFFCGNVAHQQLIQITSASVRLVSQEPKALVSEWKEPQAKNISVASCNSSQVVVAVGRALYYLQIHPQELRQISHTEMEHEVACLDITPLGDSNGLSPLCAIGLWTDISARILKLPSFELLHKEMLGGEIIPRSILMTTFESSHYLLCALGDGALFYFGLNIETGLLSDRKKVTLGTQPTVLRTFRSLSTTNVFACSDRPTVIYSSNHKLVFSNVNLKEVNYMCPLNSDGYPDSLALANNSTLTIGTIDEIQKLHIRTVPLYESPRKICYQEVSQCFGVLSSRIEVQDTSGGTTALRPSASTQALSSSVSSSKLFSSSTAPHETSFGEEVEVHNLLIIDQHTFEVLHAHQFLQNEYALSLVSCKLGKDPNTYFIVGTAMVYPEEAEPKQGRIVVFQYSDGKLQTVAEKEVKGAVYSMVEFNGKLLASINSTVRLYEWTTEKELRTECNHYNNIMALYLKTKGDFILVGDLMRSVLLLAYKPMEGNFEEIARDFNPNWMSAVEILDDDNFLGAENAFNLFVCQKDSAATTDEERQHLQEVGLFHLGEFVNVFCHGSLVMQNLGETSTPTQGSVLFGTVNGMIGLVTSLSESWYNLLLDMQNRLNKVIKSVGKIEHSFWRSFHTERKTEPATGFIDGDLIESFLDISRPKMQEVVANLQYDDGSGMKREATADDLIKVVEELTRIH

What is called GI50 is the concentration at which growth is held to half of that of the control. The low end stands for more potent growth inhibition, the high end for less potent growth inhibition. Regarding `CCN(C)S(=O)(=O)Nc1ccc(F)c(Oc2ccc3ncn([C@H]4COC5(CCN(C6C7COCC6CC(c6ccc(NC8CCC(=O)NC8=O)cc6F)C7)CC5)C4)c(=O)c3c2)c1C#N` (stereo partly drawn) [Compound 194, (3R)-3-[6-[2-cyano-3-[[ethyl(methyl)sulfamoyl]amino]-6-fluoro-phenoxy]-4-oxo-quinazolin-3-yl]-8-[7-[4-[(2,6-dioxo-3-piperidyl)amino]-2-fluoro-phenyl]-3-oxabicyclo[3.3.1]nonan-9-yl]-1-oxa-8-azaspiro[4.5]decane], the DC50 in assay [1] (setting [3]) was under 1 µM; in assay [1] (setting [4]), over 10 µM. Also, the Emax in assay [1] (read-out: HiBiT-Degradation A375.10 BRAF 2 hours Emax) and in assay [2] (Homo sapiens) was 50 to 90% each time. This compound also returned a GI50 in assay [2] (Homo sapiens) of over 10 µM.

On to `CCN(C)S(=O)(=O)Nc1ccc(F)c(Oc2ccc3ncn([C@@H]4COC5(CCN(C6CCC(c7ccc(NC8CCC(=O)NC8=O)cc7F)CC6)CC5)C4)c(=O)c3c2F)c1C#N` (single isomer, unassigned) [Compound 53], for which the DC50 in assay [1] (setting [3]) and in assay [1] (setting [4]) was under 1 µM each time. Besides, the “HiBiT-Degradation A375.10 BRAF 2 hours Emax” value in assay [1] (setting [5]) is given as “*** (<=50%)”. Further, in assay [2], the GI50 was 1 to 10 µM. Besides, the “CTGlo A375.11 96 hours Emax” value in assay [2] is “** (<90% and >50%)”.

As to `CCN(C)S(=O)(=O)Nc1ccc(F)c(C(=O)c2ccc3ncn(C4CC5(CCN(C6CC7(C6)CN(c6cc8c(cc6F)c(N6CCC(=O)NC6=O)nn8C)C7)CC5)C4)c(=O)c3c2)c1F` (stereo not drawn) [Compound 304, 3-[7-[2-[3-(2,4-dioxohexahydropyrimidin-1-yl)-5-fluoro-1-methyl-indazol-6-yl]-2-azaspiro[3.3]heptan-6-yl]-7-azaspiro[3.5]nonan-2-yl]-6-[3-[[ethyl(methyl)sulfamoyl]amino]-2,6-difluoro-benzoyl]-4-oxo-quinazoline], the DC50 was under 1 µM in assay [1] (setting [3]), 1 to 10 µM in assay [1] (setting [4]), under 1 µM in assay [1] (setting [6]) and under 1 µM in assay [1] (setting [8]). Moreover, the Emax in assay [1] (A375.10 cells, BRAF V600E, 2 hours, residual protein remaining, read-out: HiBiT-Degradation A375.10 BRAF 2 hours Emax) was 50 to 90%; in assay [1] (setting [7]) it was under 50%; in assay [2] (Homo sapiens, 96 h), 50 to 90%. The compound also yielded a GI50 in assay [2] (Homo sapiens, 96 h) of 1 to 10 µM.

As for `CCN(C)S(=O)(=O)Nc1ccc(F)c(Oc2ccc3ncn([C@H]4CO[C@]5(CCN(C6CCC(c7cc8c(cc7F)c(N7CCC(=O)NC7=O)nn8C)CC6)C5)C4)c(=O)c3c2)c1C#N` (single isomer, unassigned) [Compound 289], the DC50 in assay [1] (setting [3]), in assay [1] (setting [4]), in assay [1] (setting [6]) and in assay [1] (setting [8]) was under 1 µM each time. Further, the “HiBiT-Degradation A375.10 BRAF 2 hours Emax” value in assay [1] (setting [5]) is “*** (<=50%)”. In addition, in assay [1] (setting [7]), the Emax is under 50%. Further, the 50% growth inhibitory concentration (GI50) in assay [2] is under 1 µM. In addition, in assay [2], the “CTGlo A375.11 96 hours Emax” value is recorded as “*** (<=50%)”.

On to `CCN(C)S(=O)(=O)Nc1ccc(F)c(Oc2ccc3ncnc(OC4CC5(C4)CN(C4CCC(c6cc7c(cc6F)c(N6CCC(=O)NC6=O)nn7C)CC4)C5)c3c2)c1C#N` (single isomer, unassigned) [Compound 233, 6-[2-cyano-3-[[ethyl(methyl)sulfamoyl]amino]-6-fluoro-phenoxy]-4-[[2-[4-[3-(2,4-dioxohexahydropyrimidin-1-yl)-5-fluoro-1-methyl-indazol-6-yl]cyclohexyl]-2-azaspiro[3.3]heptan-6-yl]oxy]quinazoline], for which, in assay [1], the “HiBiT-Degradation A375.10 BRAF 2 hours Emax” value was “** (<90% and >50%)”. The DC50 in assay [1] (setting [3]) and in assay [1] (setting [4]) was under 1 µM each time. The compound also showed a GI50 in assay [2] of over 10 µM. In addition, the “CTGlo A375.11 96 hours Emax” value in assay [2] is “** (<90% and >50%)”.

Consider `CCN(C)S(=O)(=O)Nc1ccc(F)c(Oc2ccc3ncn([C@H]4COC5(CCN(C6CCC(c7ccc(NC8CCC(=O)NC8=O)cc7F)CC6)CC5)C4)c(=O)c3c2F)c1C#N` (single isomer, unassigned) [Compound 51], for which the DC50 in assay [1] (setting [3]) was under 1 µM. Also, in assay [1] (setting [4]), the DC50 is under 1 µM. In addition, the “HiBiT-Degradation A375.10 BRAF 2 hours Emax” value in assay [1] (setting [5]) was “** (<90% and >50%)”. Moreover, in assay [2], the GI50 was 1 to 10 µM and the “CTGlo A375.11 96 hours Emax” value is listed as “*** (<=50%)”.
